Source: paper PMC8080589, “Modulation of αVβ6 integrin in osteoarthritis-related synovitis and the interaction with VTN(381–397 a.a.) competing for TGF-β1 activation” (Experimental & Molecular Medicine, 2021)
Ends that are not written are not given here.

Key:
integrin αVβ6 = molecular target: T1, integrin αVβ6 (Homo sapiens, UniProt P06756+P18564); test: Competition study, 125ISIB-echistatin vs ligands on coated αVβ6; format: binding; conditions: competition with 125ISIB-echistatin on α5β1, αVβ1, αVβ3, αVβ5, αVβ6
T1 construct: purchased R&D System; Minneapolis, MN, USA
Procedure: A competition study was performed to investigate the interaction of VTN(381–397 a.a.) with five different integrins. Radiolabeled echistatin, a disintegrin known to bind integrin receptors, was used as a tracer for the binding assays. Lyophilized echistatin was provided by Bachem (Bubendorf, Switzerland) and radiolabeled by conjugation with a radioiodinated benzoate (^125ISIB) to the epsilon amino group of lysine side chains. For the five integrins, α5β1, αVβ1, αVβ3, αVβ5, and αVβ6 (R&D System; Minneapolis, MN, USA), a solution at 1.8 µg/mL was prepared with integrin-binding buffer (IBB; 20 mM Tris pH 7.4, 150 mM NaCl, 2 mM CaCl2, 1 mM MgCl2, 1 mM MnCl2). Nunc Maxisorp Module plates were coated overnight at 4 °C with integrin complex at 1.8 µg/mL. After the wells were washed with sample buffer (IBB, 0.5% BSA), blocking solution (IBB, 2% BSA) was added, and the microplate was incubated for 2 h at room temperature. The wells were then washed three times with IBB/0.5% BSA. Then, ^125ISIB-echistatin was diluted in sample buffer to fixed concentrations of 4, 4, 8, 8, and 20 nM for α5β1, αVβ1, αVβ3, αVβ5, and αVβ6 competition studies, respectively. The ^125ISIB-echistatin was mixed with sample buffer at a ratio of 1:1 (total binding = control well) or with increasing concentrations of ligands (Supplementary information SI1) [complete VTN, VTN(381–397 a.a.), VTN(365–381 a.a.)] at a ratio 1:1 and added to wells in duplicate. We used 1,4,7-triazacyclononane-1,4,7-triacetic acid (NOTA) as a negative control. […] After rinsing, bound radioactivity was quantified using a gamma counter. The percentage of relative binding of radiolabeled echistatin was calculated as follows: radioactivity in the test well*100/radioactivity in the reference well. […] For comparison of the potency of ligands in inhibiting bound ^125ISIB-echistatin for different integrin complexes, the half-maximal inhibitory concentration (IC50) was calculated. The IC50 value was determined by constructing a dose–response curve and examining the effect of different concentrations of ligands on ^125ISIB-echistatin binding. […]
To determine if VTN(381–397 a.a.) could interact with integrins, we investigated its ability to compete with radiolabeled echistatin for binding to five different integrin complexes: α5β1, αVβ1, αVβ3, αVβ5 and αVβ6. […] First, the binding affinity of echistatin to the five integrins was measured by determining the equilibrium dissociation constant (KD). […] The fixed concentration of radiolabeled echistatin was determined according to its KD value. For each ligand concentration, the relative binding of ^125ISIB-echistatin to coated integrins was then measured, and values were plotted versus the logarithm of ligand concentration.

β3 phosphorylation = conditions: through binding to αVβ3; ref [32]; cited from earlier work
Description: (§1) In this study, we started to move towards a functional investigation of the role of VTN(381–397 a.a.) in OA. VTN is known to interact with integrin receptors by its RGD motif, which is positioned far upstream from VTN(381–397 a.a.) on the N-terminal end of VTN. However, Maile and colleagues also previously described a second integrin-binding site located within the HBD between amino acids 365 and 381[32],[33]. […] Considering that the fragment VTN(381–397 ...

αVβ3 = conditions: ref [32]; cited from earlier work
Description: as §1

T1 sequence (P06756 31-992 limits assumed): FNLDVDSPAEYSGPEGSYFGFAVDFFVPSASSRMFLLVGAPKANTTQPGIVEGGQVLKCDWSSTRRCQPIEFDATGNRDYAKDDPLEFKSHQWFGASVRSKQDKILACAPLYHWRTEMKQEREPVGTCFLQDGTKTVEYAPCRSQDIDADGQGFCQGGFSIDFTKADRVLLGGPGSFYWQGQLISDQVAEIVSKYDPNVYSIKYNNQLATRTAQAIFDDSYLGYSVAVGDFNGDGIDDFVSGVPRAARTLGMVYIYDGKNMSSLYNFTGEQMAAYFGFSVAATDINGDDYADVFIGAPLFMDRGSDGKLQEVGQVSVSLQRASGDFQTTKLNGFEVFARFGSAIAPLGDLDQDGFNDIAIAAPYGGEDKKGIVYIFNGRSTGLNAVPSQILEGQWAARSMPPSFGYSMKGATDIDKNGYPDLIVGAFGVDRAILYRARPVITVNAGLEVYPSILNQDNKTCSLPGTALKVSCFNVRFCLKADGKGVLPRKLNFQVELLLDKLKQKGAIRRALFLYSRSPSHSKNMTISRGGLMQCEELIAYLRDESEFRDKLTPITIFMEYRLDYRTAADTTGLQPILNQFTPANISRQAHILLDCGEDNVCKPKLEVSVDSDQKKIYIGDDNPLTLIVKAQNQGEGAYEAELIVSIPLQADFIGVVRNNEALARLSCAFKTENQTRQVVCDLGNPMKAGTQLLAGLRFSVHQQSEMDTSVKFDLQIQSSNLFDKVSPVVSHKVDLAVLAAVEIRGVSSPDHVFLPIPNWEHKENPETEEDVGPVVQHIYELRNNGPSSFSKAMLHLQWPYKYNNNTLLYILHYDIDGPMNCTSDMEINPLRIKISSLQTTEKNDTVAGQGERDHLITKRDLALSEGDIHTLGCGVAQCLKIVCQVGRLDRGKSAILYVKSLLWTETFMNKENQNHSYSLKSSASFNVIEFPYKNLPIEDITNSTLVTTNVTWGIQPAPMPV
T1 sequence (P18564 22-707 limits assumed): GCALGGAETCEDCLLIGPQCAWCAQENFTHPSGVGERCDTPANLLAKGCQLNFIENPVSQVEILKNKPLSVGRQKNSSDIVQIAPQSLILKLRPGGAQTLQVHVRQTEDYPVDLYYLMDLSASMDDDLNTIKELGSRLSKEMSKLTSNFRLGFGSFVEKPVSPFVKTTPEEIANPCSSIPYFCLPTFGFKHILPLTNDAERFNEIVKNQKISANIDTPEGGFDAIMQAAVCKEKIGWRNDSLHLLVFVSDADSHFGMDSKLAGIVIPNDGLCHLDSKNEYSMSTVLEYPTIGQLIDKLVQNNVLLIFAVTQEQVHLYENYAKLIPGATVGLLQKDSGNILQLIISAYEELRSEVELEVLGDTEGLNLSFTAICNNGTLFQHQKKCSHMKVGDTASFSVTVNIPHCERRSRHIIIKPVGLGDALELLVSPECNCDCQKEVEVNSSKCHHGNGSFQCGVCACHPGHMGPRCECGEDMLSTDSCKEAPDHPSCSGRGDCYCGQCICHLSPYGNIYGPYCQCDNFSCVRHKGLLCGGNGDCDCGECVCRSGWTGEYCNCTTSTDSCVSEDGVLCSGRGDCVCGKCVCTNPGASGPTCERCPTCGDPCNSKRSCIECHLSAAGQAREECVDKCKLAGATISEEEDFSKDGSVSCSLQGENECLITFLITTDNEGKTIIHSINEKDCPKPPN

## LAKKQRFRHRNRKGYRS [VTN(365–381 a.a.)]
Integrin αVβ6
  integrin binding specificity: only showed a high affinity for integrin αVβ6
β3 phosphorylation
  effect on β3 phosphorylation: its binding was sufficient to enhance β3 phosphorylation
αVβ3
  interaction with αVβ3: could interact with αVβ3
